The record followed here is patent US20030232747A1, “Method of identifying a pharmaceutically active compound for the treatment of a condition caused by altered expression of the insulin receptor” (priority 2002, published 2003).

Assay [1] can be described thus: Organ weights after castration and testosterone replacement in young rats. Type of assay: in vivo, rat. The procedure: Pellets for testosterone-or placebo-implantation were received from Innovative Research of America, Sarasota, Fla., USA. To evaluate the effects of castration and testosterone replacement male wistar rats (3 months, n=21) were divided into three groups: Group 1, intact (shame operated, given a placebo-pellet by implantation under the dorsal skin, n=7), group 2, castrated (implantation of placebo-pellet, n=7) and group 3, castrated, but given a testosterone-implantate of 15 mg (n=7). 3 weeks after treatment rats were killed and penile tissue as well as blood samples were treated as described in example 1. The experimental study was conducted in accordance with the general federal law on the care and use of laboratory animals.
It was noted that the level of testosterone in the serum of young versus old rats were 4.436±1.1 and 0.57±0.17 ng/ml (mean±SD, n=4) respectively, pointing to a drop in the level of testosterone in circulation of aged animals. This is in agreement with Zirkins lab (Zirkin et al., Exp. Gerontol. 32:529-537 (1997); Zirkin and Chen, Biol. Reprod. 63:977-981 (2000)). In order to discern if the observed ageing related alteration in the expression of two splice variants of insulin receptor mRNA could be due to a declining androgen level in the ageing rats, we have performed orchiedectomy on young rats. One group of castrated rats received androgen releasing subcutanous implant. […] The effect of castration and andorgen-replacement of the insulin receptor mRNA expression in penile tissue of young rats is presented in FIG. 4a. […] Following castration, the appearance of the smaller splice variant was observed, the pattern resembling the old animals.

The subject of assay [2] is insulin receptor mRNA splice variants Ex11+/Ex11-. Kind of assay: RT-PCR and densitometric analysis of insulin receptor mRNA splice variants in penile tissue after castration and testosterone replacement. Type of assay: in vivo, rat. The procedure:
Tissue samples (100-200 mg) were pulverized in liquid nitrogen. Total RNA was isolated using guanidium thocyanate, phenol-chloroform extraction (pecLab, Erlangen, Germany). The RNA was precipitated with isopropanol at −20° C. for 2 h, washed with 75% ethanol, dissolved in diethylpyrocarbonate water and quantified spectrometrically at 260 nm. The ratio of absorption of all preparations was between 1.8 and 2.0. To ensure that concentration was identical in each sample, the intensity of 28 sRNA was compared on an 1% agarose gelectrophoresis after ethidium bromide staining. Total RNA was stored at −80° C. until further use.
First strand cDNA synthesis was carried out using a commercially available kit (Gibco BRL). Briefly, 4 μg of total RNA was primed with 0,5 μg of oligo(dT)12-18 and incubated 10 min at 70° C. For each sample lx first strand puffer, 0,2M DTT, 10 mM dNTP's and 200U of Superscript II reverse transcriptase were added. Reverse transcription was performed at 42° C. for 50 min and stopped by heating for 15 min. at 70° C. The resulting cDNA templates were stored at −20° C. or directly used for PCR.
After a denaturation period of 3 min the PCR reaction was followed by 35 cycles of 95° C. for 60 sec., 60° C. for 60 sec. and 72° C. for 60 sec. PCR was performed with 6 μl cDNA, 10 mM of each dNTP, 5U Taq-Polymerase (Biotherm) and 50 pmol of both sense and antisense primers in PCR buffer. The final volume of each reaction was 50 μl. Reaction products (15 μl) were run on a 2.5% agarose gel. Primers used for PCR were: […]
Densitometric analysis of the insulin receptor mRNA splice variant levels was performed using the Image Quant 5.0 software.
For the proportion of the two insulin receptor variant mRNA levels, significance of the difference of the mean values was determined by unpaired student's t-test. The threshold for signigicance was set at p<0.05.
Pellets for testosterone-or placebo-implantation were received from Innovative Research of America, Sarasota, Fla., USA. […]

The mark [3] stands for this setting: young (3 months) castrated male wistar rats, testosterone implant 15 mg, 3 weeks after treatment, n=7.
[4] abbreviates: young castrated rats with androgen supplementation (testosterone implant 15 mg), 3 weeks, FIG. 4b.

Take `C[C@]12CC[C@H]3[C@@H](CCC4=CC(=O)CC[C@@]43C)[C@@H]1CC[C@@H]2O` [testosterone]: in assay [1] (setting [3]), the “Penis weight in relation to body weight” value was found to be 78.55 ± 5.54 mg/100 g body weight and the “Prostate weight in relation to body weight” value turned out to be 92.37 ± 33.89 mg/100 g body weight. In addition, the “Effect on castration-induced reduction of penis and prostate weight (in words)” value in assay [1] (young castrated rats, testosterone replacement) is “induced a reversal of this effect in both organs”. Besides, in assay [2] (setting [4]), the “Relative proportion of Ex11+ insulin receptor mRNA in penis” value is 22.8% and the “Relative proportion of Ex11- insulin receptor mRNA in penis” value is on record as 77.2%. For the same compound, the “Appearance of the smaller insulin receptor splice variant (Ex11-) in penile tissue (in words)” value in assay [2] (young castrated rats with androgen supplementation, FIG. 4a) is reported as “this isoform persisted”.
